The supplement of paper PMC13380429
± gives the standard deviation of the averaged measurements.

What was measured:
Settings in all cases: 72 h
Caco-2 [1] = assay: cell viability relative to DMSO; higher = less toxic
Calu-3 [2] = assay: as above
HepG2 [3] = assay: as above
U2OS [4] = assay: as above
Vero E6 [5] = assay: as above
Calu-3 [6] = assay: relative viability EC50 (midpoint between 100% and the lowest measured viability); higher = less toxic
U2OS [7] = assay: as above
Vero E6 [8] = assay: as above
Caco-2 [9] = assay: drug sensitivity score (DSS) for viability; higher = more toxic; extreme values may be limits of the assay
Calu-3 [10] = assay: as above
HepG2 [11] = assay: as above
U2OS [12] = assay: as above
Vero E6 [13] = assay: as above
Caco-2 [14] = assay: relative viability EC50 (midpoint between 100% and the lowest measured viability); higher = less toxic
HepG2 [15] = assay: as above

Compound	cell viability (Caco-2 [1]; 1 nM)	cell viability (Caco-2 [1]; 10 nM)	cell viability (Caco-2 [1]; 100 nM)	cell viability (Caco-2 [1]; 1000 nM)	cell viability (Caco-2 [1]; 10000 nM)	cell viability (Calu-3 [2]; 1 nM)	cell viability (Calu-3 [2]; 10 nM)	cell viability (Calu-3 [2]; 100 nM)	cell viability (Calu-3 [2]; 1000 nM)	cell viability (Calu-3 [2]; 10000 nM)	cell viability (HepG2 [3]; 1 nM)	cell viability (HepG2 [3]; 10 nM)	cell viability (HepG2 [3]; 100 nM)	cell viability (HepG2 [3]; 1000 nM)	cell viability (HepG2 [3]; 10000 nM)	cell viability (U2OS [4]; 1 nM)	cell viability (U2OS [4]; 10 nM)	cell viability (U2OS [4]; 100 nM)	cell viability (U2OS [4]; 1000 nM)	cell viability (U2OS [4]; 10000 nM)	cell viability (Vero E6 [5]; 1 nM)	cell viability (Vero E6 [5]; 10 nM)	cell viability (Vero E6 [5]; 100 nM)	cell viability (Vero E6 [5]; 1000 nM)	cell viability (Vero E6 [5]; 10000 nM)	relative viability EC50 (Calu-3 [6])	relative viability EC50 (U2OS [7])	relative viability EC50 (Vero E6 [8])	drug sensitivity score (Caco-2 [9])	drug sensitivity score (Calu-3 [10])	drug sensitivity score (HepG2 [11])	drug sensitivity score (U2OS [12])	drug sensitivity score (Vero E6 [13])	relative viability EC50 (Caco-2 [14])	relative viability EC50 (HepG2 [15])
CC(C)c1noc(N2CCC(COc3ccc(-c4ccc(S(C)(=O)=O)cc4)nc3)CC2)n1	92.5%	93.5%	101%	95.6%	72.5%	96.4%	101%	92.4%	94.4%	106%	97.1%	106%	109%	97.3%	50.9%	99.3%	94.1%	97.6%	100%	101%	98%	100%	98.8%	89.3%	103%	> 10 µM	> 10 µM	> 10 µM	1.8	0	2.9	0	0	–	–
CC1=C(C(=O)Nc2cc3cn[nH]c3cc2F)C(c2ccc(C(F)(F)F)cc2)CC(=O)N1 (stereo not given)	83%	89.6%	91.3%	99.1%	102%	–	–	–	–	–	100%	103%	104%	95.6%	92%	94.9%	97.9%	92.3%	96.8%	86.3%	102%	104%	101%	82.5%	84.4%	–	> 10 µM	> 10 µM	0	–	0	0	2	> 10 µM	> 10 µM
CC1Oc2cc(cnc2N)-c2c(nn(C)c2C#N)CN(C)C(=O)c2ccc(F)cc21 (stereo not given)	89.2 ± 7.6%	97 ± 8%	96.15 ± 0.21%	91.6 ± 4.1%	83.4 ± 7.8%	105 ± 5.7%	95.5 ± 3.8%	88.7 ± 2.4%	74.8 ± 4.3%	78.7 ± 7.5%	95 ± 4.1%	101 ± 9.8%	99.3 ± 4.7%	87.5 ± 6.2%	72.2 ± 6.9%	97.8 ± 2.6%	103.8 ± 0.64%	97.2 ± 2.4%	96.6 ± 1.4%	83.5 ± 8.1%	103 ± 4.9%	92 ± 6.6%	90.5 ± 2.6%	80.2 ± 0.28%	83.2 ± 7.3%	–	> 10 µM	> 10 µM	0	4.85 ± 1.1	2.5 ± 1.6	0.7 ± 0.99	3.35 ± 0.35	> 10 µM	–
Cn1cc(-c2[nH]c3cc(NC(=O)[C@H](N)C4CCCCC4)cc4c3c2C=NNC4=O)cn1	106%	98.2%	97.8%	104%	25.9%	109%	98.7%	114%	66.7%	51.2%	97.3%	103%	91.5%	50.9%	30.7%	99.9%	98.4%	96.3%	8.5%	4.2%	95.4%	99.4%	98.3%	95.3%	84.5%	–	0.324 µM	> 10 µM	3.7	6.5	10.3	17.1	0.6	3.48 µM	0.493 µM
NC(=O)c1cnc2[nH]ccc2c1N[C@@H]1[C@@H]2CC3C[C@H]1C[C@@](O)(C3)C2	101%	101%	90.5%	104%	113%	–	–	–	–	–	113%	112%	107%	109%	47%	96.4%	97.1%	96.5%	93.1%	67.2%	95.4%	97.6%	99.6%	107%	101%	–	–	> 10 µM	0	–	2.3	2.6	0	> 10 µM	3.87 µM
COc1ccc(C(=O)c2c(C)n(CCN3CCOCC3)c3cc(I)ccc23)cc1 [AM-630]	97.3%	113%	81.1%	94.2%	69.7%	92.9%	102%	104%	102%	92.9%	93.3%	82.5%	104%	94.3%	91.6%	96.2%	101%	97.2%	98.5%	94.1%	97.8%	96.5%	102%	100%	97%	> 10 µM	> 10 µM	> 10 µM	2.1	0	0	0	0	–	> 10 µM
Cc1[nH]nc(C(F)(F)F)c1Cc1sc2c(c1C(=O)N1C[C@](C)(O)CO1)c(=O)n(C)c(=O)n2C(C)C [AZD3965]	92.9%	79.5%	74.9%	72%	76.5%	93.6%	101%	101%	103%	107%	99.4%	89.2%	99.3%	93.3%	101%	99.8%	95.3%	89%	92%	89.2%	99.8%	97.5%	101%	92.9%	97.4%	> 10 µM	> 10 µM	> 10 µM	10.1	0	0	0.6	0	–	> 10 µM
C[C@@H]1COCCN1c1cc(C2([S@](C)(=N)=O)CC2)nc(-c2ccnc3[nH]ccc23)n1 [AZD6738]	92.8%	100%	103%	96.7%	49.8%	92.8%	96%	108%	92.7%	50.2%	94.5%	88.6%	104%	67.7%	35.6%	94.1%	101%	100%	96.8%	16.8%	98.8%	94.5%	92.1%	90.9%	78.5%	–	2.88 µM	> 10 µM	3.1	3.9	7.6	5.1	1.3	2.65 µM	0.998 µM
Cc1cc(Nc2ncnc3ccc(-c4ccc(CNCCS(C)(=O)=O)o4)cc23)ccc1Oc1ccn2ncnc2c1 [HER2-Inhibitor-1]	102%	88.5%	94.8%	88.4%	52.7%	122%	88.4%	66.1%	45.5%	30.5%	98.4%	102%	95.8%	89.1%	88.8%	98.2%	95.2%	100%	91.9%	87.9%	105%	106%	105%	93.7%	94.2%	0.124 µM	> 10 µM	> 10 µM	4.2	15	0.4	0.4	0	–	> 10 µM
C=CC(=O)c1ccc2ccccc2c1 [JAK3-inhibitor-V]	–	–	–	–	–	110%	97.3%	111%	94.8%	96.6%	106%	108%	98.8%	110%	110%	–	–	–	–	–	99.5%	107%	99.8%	104%	101%	> 10 µM	–	> 10 µM	–	0	0	–	0	–	> 10 µM
O=c1onc2cnc3ccccc3n12 [ODQ]	91.3%	96%	95.2%	89.9%	112%	–	–	–	–	–	105%	110%	100%	110%	94.3%	–	–	–	–	–	97.9%	96.4%	97.6%	108%	105%	–	–	> 10 µM	0	–	0	–	0	> 10 µM	> 10 µM
O=C(O)[C@H](Cc1c[nH]c2ccccc12)N1C(=O)c2ccccc2C1=O [RG108]	96.8%	100%	91.9%	106%	102%	–	–	–	–	–	118%	109%	114%	99.8%	109%	105%	105%	97.1%	105%	96.2%	97.4%	99.1%	97.6%	92%	101%	–	> 10 µM	> 10 µM	0	–	0	0	0	> 10 µM	> 10 µM
O=C(O)CCN(O)C(=O)CCCCCCCCC1CC1 [TC-E-5002]	89%	97.7%	91.3%	92.1%	91.9%	–	–	–	–	–	96.1%	103%	101%	99.3%	104%	–	–	–	–	–	97.2%	99.2%	97.7%	93.2%	94.9%	–	–	> 10 µM	0	–	0	–	0	> 10 µM	> 10 µM
CC(=O)Nc1ccc(S(=O)(=O)c2ccc(NC(C)=O)cc2)cc1 [acedapsone]	119%	115%	96.2%	108%	92.9%	–	–	–	–	–	105%	97.3%	86.3%	107%	102%	104%	108%	102%	104%	97.4%	106%	101%	105%	99.5%	98.8%	–	> 10 µM	> 10 µM	0	–	0	0	0	> 10 µM	> 10 µM
CC(C)[C@H]1C(=O)N[C@@H](CCCNC(=N)N)C(=O)NCC(=O)N[C@@H](CC(=O)O)C(=O)N[C@H](Cc2ccccc2)C(=O)N1C [cilengitide]	98.6%	95.4%	96.5%	80.5%	41.1%	97.6%	94.3%	87.1%	89.4%	70.5%	103%	103%	92.6%	116%	103%	–	–	–	–	–	98.1%	101%	98.8%	79.8%	17%	–	–	1.57 µM	5.8	2.8	0	–	7.7	1.39 µM	> 10 µM
CC(C)c1cc2c(cc1S(=O)(=O)O)[C@@]1(C)CCC[C@@](C)(C(=O)O)[C@@H]1CC2 [ecabet]	–	–	–	–	–	109%	107%	112%	110%	99.5%	105%	110%	93.8%	112%	104%	96.7%	93.7%	99.1%	95%	103%	96.4%	96.1%	96.9%	96.9%	107%	> 10 µM	> 10 µM	> 10 µM	–	0	0	0	0	–	> 10 µM
